Data published in PMC9090415, “Discovery of small molecule inhibitors of Plasmodium falciparum apicoplast DNA polymerase” (Journal of Enzyme Inhibition and Medicinal Chemistry, 2022).

Molecular target: P. falciparum apicoplast DNA polymerase (Pf-apPOL) (Plasmodium falciparum, UniProt Q8ILY1)
Experiment: Fluorescence-based high-throughput DNA polymerase assay (molecular beacon), primary screen and dose-response;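 for % inhibition ApPOL 90': test concentration in µM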;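 for % inhibition Apol 40': compound concentration given in µM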;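 for % inhibition apPOL 180': test concentration in µM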
Format: biochemical
Conditions: for DNA Pol: 90 min, 10 µM
Outline: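 Single-point screening used 10 µM compound with 20 nM polymerase, 20 nM hairpin substrate and 6 µM dNTPs for 90 min at 25 °C. Confirmatory titrations (2.5–80 µM) followed fluorescence at three times, and IC50 was derived from a fit including a cooperativity term n.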

[1] = 'DNA Pol' of the 186 hits list (primary screen value)

Sequence of P. falciparum apicoplast DNA polymerase (Pf-apPOL) (Q8ILY1 entry or part of it): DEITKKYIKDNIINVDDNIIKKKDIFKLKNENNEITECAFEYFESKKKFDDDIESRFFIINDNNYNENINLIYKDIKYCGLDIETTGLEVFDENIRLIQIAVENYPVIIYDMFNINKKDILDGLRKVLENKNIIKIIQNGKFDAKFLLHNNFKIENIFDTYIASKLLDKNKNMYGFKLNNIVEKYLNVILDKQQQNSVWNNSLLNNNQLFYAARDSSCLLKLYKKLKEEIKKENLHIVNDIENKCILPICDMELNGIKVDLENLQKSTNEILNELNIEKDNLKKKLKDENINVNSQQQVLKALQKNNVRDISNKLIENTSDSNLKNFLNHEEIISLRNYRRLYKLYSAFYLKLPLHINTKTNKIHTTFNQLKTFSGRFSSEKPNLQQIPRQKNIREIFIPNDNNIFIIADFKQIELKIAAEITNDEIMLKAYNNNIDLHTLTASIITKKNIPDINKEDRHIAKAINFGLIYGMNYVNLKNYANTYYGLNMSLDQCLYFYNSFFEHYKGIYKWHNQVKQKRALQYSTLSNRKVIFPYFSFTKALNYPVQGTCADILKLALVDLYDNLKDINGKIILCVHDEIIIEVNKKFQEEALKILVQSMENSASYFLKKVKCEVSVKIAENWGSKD

O=C1c2ccccc2C(=O)N1Oc1ccc([N+](=O)[O-])c([N+](=O)[O-])c1 [Molecule 66, O=N(=O)c1cc(ccc1N(=O)=O)ON1C(=O)c2c(C1=O)cccc2]
DNA Pol [1]: 72 | DNA Pol (DNA Pol (primary screen value)): 72 | % inhibition Apo pol 10' (DRC-1, concentration 2.5): 7.12% | % inhibition Apo pol 10' (DRC-1, concentration 5): 12.8299% | % inhibition Apo pol 10' (DRC-1, concentration 10): 14.545% | % inhibition Apo pol 10' (DRC-1, concentration 20): 24.992% | % inhibition Apo pol 10' (DRC-1, concentration 40): 53.6709% | % inhibition Apo pol 10' (DRC-1, concentration 80): 72.2964% | % inhibition Apol 90' (DRC-1, concentration 2.5): 2.278% | % inhibition Apol 90' (DRC-1, concentration 5): 9.738% | % inhibition Apol 90' (DRC-1, concentration 10): 13.1271% | % inhibition Apol 90' (DRC-1, concentration 20): 22.9091% | % inhibition Apol 90' (DRC-1, concentration 40): 49.4397% | % inhibition Apol 90' (DRC-1, concentration 80): 69.1434% | % inhibition apPOL 180' (DRC-1, concentration 2.5): -1.453% | % inhibition apPOL 180' (DRC-1, concentration 5): 3.779% | % inhibition apPOL 180' (DRC-1, concentration 10): 7.291% | % inhibition apPOL 180' (DRC-1, concentration 20): 17.0641% | % inhibition apPOL 180' (DRC-1, concentration 40): 43.6341% | % inhibition apPOL 180' (DRC-1, concentration 80): 66.4384% | % inhibition Apo pol 5' (DRC-2, concentration 2.5): 1.26% | % inhibition Apo pol 5' (DRC-2, concentration 5): 6% | % inhibition Apo pol 5' (DRC-2, concentration 10): 12% | % inhibition Apo pol 5' (DRC-2, concentration 20): 27% | % inhibition Apo pol 5' (DRC-2, concentration 40): 40% | % inhibition Apo pol 5' (DRC-2, concentration 80): 51% | % inhibition Apol 40' (DRC-2, concentration 2.5): 6.34% | % inhibition Apol 40' (DRC-2, concentration 5): 11% | % inhibition Apol 40' (DRC-2, concentration 10): 18% | % inhibition Apol 40' (DRC-2, concentration 20): 35% | % inhibition Apol 40' (DRC-2, concentration 40): 48% | % inhibition Apol 40' (DRC-2, concentration 80): 62% | % inhibition ApPOL 90' (DRC-2, concentration 2.5): 5% | % inhibition ApPOL 90' (DRC-2, concentration 5): 9.49% | % inhibition ApPOL 90' (DRC-2, concentration 10): 17% | % inhibition ApPOL 90' (DRC-2, concentration 20): 36% | % inhibition ApPOL 90' (DRC-2, concentration 40): 50% | % inhibition ApPOL 90' (DRC-2, concentration 80): 66% | % inhibition apPOL 180' (DRC-2, concentration 2.5): 3% | % inhibition apPOL 180' (DRC-2, concentration 5): 5.62% | % inhibition apPOL 180' (DRC-2, concentration 10): 13% | % inhibition apPOL 180' (DRC-2, concentration 20): 32% | % inhibition apPOL 180' (DRC-2, concentration 40): 48% | % inhibition apPOL 180' (DRC-2, concentration 80): 68%

CC(NC(=O)Cc1cc(=O)[nH]c(SCc2cccc(Cl)c2)n1)c1ccccc1 (stereo not shown) [Molecule 67, O=C(NC(c1ccccc1)C)Cc1nc(SCc2cccc(c2)Cl)[nH]c(=O)c1]
DNA Pol [1]: 46 | DNA Pol (DNA Pol (primary screen value)): 46 | % inhibition Apo pol 10' (DRC-1, concentration 2.5): -1.6671% | % inhibition Apo pol 10' (DRC-1, concentration 5): 0% | % inhibition Apo pol 10' (DRC-1, concentration 10): 11.4347% | % inhibition Apo pol 10' (DRC-1, concentration 20): 48.0532% | % inhibition Apo pol 10' (DRC-1, concentration 40): 64.8608% | % inhibition Apo pol 10' (DRC-1, concentration 80): 85.5547% | % inhibition Apol 90' (DRC-1, concentration 2.5): -5.257% | % inhibition Apol 90' (DRC-1, concentration 5): -6.461% | % inhibition Apol 90' (DRC-1, concentration 10): 1.923% | % inhibition Apol 90' (DRC-1, concentration 20): 26.5805% | % inhibition Apol 90' (DRC-1, concentration 40): 38.5858% | % inhibition Apol 90' (DRC-1, concentration 80): 80.0323% | % inhibition apPOL 180' (DRC-1, concentration 2.5): -10.8024% | % inhibition apPOL 180' (DRC-1, concentration 5): -10.8936% | % inhibition apPOL 180' (DRC-1, concentration 10): -3.791% | % inhibition apPOL 180' (DRC-1, concentration 20): 10.3203% | % inhibition apPOL 180' (DRC-1, concentration 40): 18.891% | % inhibition apPOL 180' (DRC-1, concentration 80): 71.4283% | % inhibition Apo pol 5' (DRC-2, concentration 2.5): 0.743% | % inhibition Apo pol 5' (DRC-2, concentration 5): -0.394% | % inhibition Apo pol 5' (DRC-2, concentration 10): 30% | % inhibition Apo pol 5' (DRC-2, concentration 20): 33% | % inhibition Apo pol 5' (DRC-2, concentration 40): 27% | % inhibition Apo pol 5' (DRC-2, concentration 80): 20% | % inhibition Apol 40' (DRC-2, concentration 2.5): 0.551% | % inhibition Apol 40' (DRC-2, concentration 5): 0.92% | % inhibition Apol 40' (DRC-2, concentration 10): 36% | % inhibition Apol 40' (DRC-2, concentration 20): 49% | % inhibition Apol 40' (DRC-2, concentration 40): 52% | % inhibition Apol 40' (DRC-2, concentration 80): 55% | % inhibition ApPOL 90' (DRC-2, concentration 2.5): 0.178% | % inhibition ApPOL 90' (DRC-2, concentration 5): -1% | % inhibition ApPOL 90' (DRC-2, concentration 10): 32% | % inhibition ApPOL 90' (DRC-2, concentration 20): 48% | % inhibition ApPOL 90' (DRC-2, concentration 40): 54% | % inhibition ApPOL 90' (DRC-2, concentration 80): 64% | % inhibition apPOL 180' (DRC-2, concentration 2.5): -3% | % inhibition apPOL 180' (DRC-2, concentration 5): -6% | % inhibition apPOL 180' (DRC-2, concentration 10): 20% | % inhibition apPOL 180' (DRC-2, concentration 20): 37% | % inhibition apPOL 180' (DRC-2, concentration 40): 49% | % inhibition apPOL 180' (DRC-2, concentration 80): 70%
